{
  "source": "patent US11116802B2",
  "about": "“Extract effective in treating drug addiction and preparation method therefor” (GUANGXI JIUFU BIOTECHNOLOGY CO., LTD, priority 2016, dated 2021)",
  "key": {"[1]": {"system": "morphine-dependent rats", "test": "Naloxone-precipitated withdrawal symptom scores in morphine-dependent rats", "format": "in vivo, Sprague-Dawley rats", "settings": "methadone 20 mg/kg, naloxone 5 mg/kg 45 min after administration, response within 30 min", "experimental": "(§1) 50 Sprague-Dawley rats (female:male 1:1) were randomized into 5 groups. Group (1) was a blank control group, and the rats were subcutaneously injected with normal saline. […] Each group was given a different treatment. Group (1), that is, the blank control group, was given the same volume of normal saline. […] Group (3), that is, the positive control group, was given 20 mg/kg of methadone. Groups (4) and (5), that is, groups with low and high doses of Agriolima agrestis extract prepared in the present invention, were given Agriolima agrestis extract at a dosage of 0.3 g/kg and 0.6 g/kg respectively. Each group of rats was administered for consecutive 3 days. The rats were allowed to free access to water and food. 45 minutes after administration on the first and third days of treatment, naloxone (5 mg/kg) was given for precipitation respectively. The withdrawal response of the rats within 30 minutes and the changes of body weight before and after precipitation (1 h) were observed."}, "[2]": {"test": "Difference in body weight of rats before and after naloxone precipitation", "format": "in vivo, Sprague-Dawley rats", "settings": "morphine-dependent rats, methadone 20 mg/kg, 1 h after precipitation", "experimental": "as §1"}, "[3]": {"system": "morphine-dependent mice", "test": "Jumps of morphine-dependent mice upon naloxone-precipitated withdrawal", "format": "in vivo, KM mice", "settings": "methadone 20 mg/kg, naloxone 8 mg/kg 1 hr after administration", "experimental": "(§2) 50 KM mice (female:male 1:1) were randomized into 5 groups. Group (1) was a blank control group, and the mice were subcutaneously injected with normal saline. […] Each group was given a different treatment. Group (1), that is, the blank control group, was given the same volume of normal saline. […] Group (3), that is, the positive control group, was given 20 mg/kg of methadone. Groups (4) and (5), that is, groups with low and high doses of Agriolima agrestis extract prepared in the present invention, were given Agriolima agrestis extract at a dosage of 0.4 g/kg and 0.8 g/kg respectively. Each group of mice was administered for consecutive 3 days. The mice were allowed to free access to water and food. 1 hrs after administration on the first and third days of treatment, naloxone (8 mg/kg) was given for precipitation respectively. The jump reaction of the mice in each group within 30 minutes and the changes of body weight before and after precipitation were observed."}, "[4]": {"test": "Difference in body weight of mice before and after naloxone precipitation", "format": "in vivo, KM mice", "settings": "morphine-dependent mice, methadone 20 mg/kg", "experimental": "as §2"}, "[5]": {"system": "Sprague-Dawley rats", "test": "Physical dependence test: naloxone-precipitated withdrawal response after 7 days of increasing doses", "format": "in vivo", "settings": "morphine hydrochloride s.c. twice a day, 5 mg/kg to 60 mg/kg, naloxone 5 mg/kg on day 8, within 30 min", "experimental": "The morphine control group was injected subcutaneously with morphine hydrochloride twice a day. […] The Agriolima agrestis extract group was administered twice a day by oral gavage with increasing dose. The dosage was increased daily from […] to 3.0 g/kg and continuously administered until the 7th day. The negative control group was given the same volume of vegetable oil daily, and the administration time and frequency were the same as those in the Agriolima agrestis extract group. […]"}, "[6]": {"system": "morphine-induced excitability in mice", "test": "Morphine-induced excitability (spontaneous activity recorder)", "format": "in vivo, KM mice", "experimental": "40 KM mice (female:male 1:1) were fastened for 12 hrs, but allowed to free access to water. The mice were randomly divided into 4 groups, including a blank control group, a group with low-dose Agriolima agrestis extract (0.4 g/kg) prepared in the present invention, a group with high-dose Agriolima agrestis extract (0.8 g/kg) prepared in the present invention, and a positive control group (estazolam 2 mg/kg). Each group of mice was placed in a YLS-1A multifunctional small animal spontaneous activity recorder. After 5 minutes of accommodation, the number of spontaneous activities of the mice before administration was measured, and the recording time was 10 min. Each group of mice was administered at the above dosage, and the blank control group was administered by oral gavage with the same volume of normal saline. […] After 15 minutes, the mice were placed in the recorder to observe and record the number of activities of the mice within 10 min."}, "[7]": {"system": "amphetamine-induced excitability in mice", "test": "Amphetamine-induced excitability (spontaneous activity recorder)", "format": "in vivo, KM mice", "experimental": "40 KM mice (female:male 1:1) were fastened for 12 hrs, but allowed to free access to water. The mice were randomly divided into 4 groups, including a blank control group, a group with low-dose Agriolima agrestis extract (0.4 g/kg) prepared in the present invention, a group with high-dose Agriolima agrestis extract (0.8 g/kg) prepared in the present invention, and a positive control group (estazolam 2 mg/kg). Each group of mice was placed in a YLS-1A multifunctional small animal spontaneous activity recorder. After 5 minutes of accommodation, the number of spontaneous activities of the mice before administration was measured, and the recording time was 10 min.\nEach group of mice was administered by oral gavage at the above dosage, and the blank control group was administered with the same volume of normal saline. Each mouse was intraperitoneally injected with amphetamine (8 mg/kg) 30 min after administration. After 15 minutes, the mice were placed in the recorder to observe and record the number of activities of the mice within 10 min."}, "[8]": {"system": "sleep time of mice with pentobarbital sodium", "test": "Sleep time with pentobarbital sodium", "format": "in vivo, KM mice", "settings": "estazolam 2 mg/kg; pentobarbital sodium 50 mg/kg 45 min after administration", "experimental": "40 KM mice (female:male 1:1) were fastened for 12 hrs, but allowed to free access to water. The mice were randomly divided into 4 groups, including a blank control group, a group with low-dose Agriolima agrestis extract (0.4 g/kg) prepared in the present invention, a group with high-dose Agriolima agrestis extract (0.8 g/kg) prepared in the present invention, and a positive control group (estazolam 2 mg/kg). Each group of mice was administered at the above dosage, and the blank control group was administered with the same volume of normal saline. After 45 minutes, each mouse was given 50 mg/kg of pentobarbital sodium, and then the sleep time of each group of mice was recorded (where the time at which the righting reflex disappeared after the administration was taken as the sleep onset time of the mice, and the duration from the time at which the righting reflex disappeared to the time at which the righting reflex returned was taken as the sleep time)."}, "[9]": {"settings": "baseline of estazolam 2 mg/kg group, recording time 10 min"}},
  "data": [
    {"compound": "CCC(=O)C(CC(C)N(C)C)(c1ccccc1)c1ccccc1", "note": "(centres unmarked) [methadone]", "values": [
      {"measurement": "Naloxone-precipitated withdrawal symptom score, Day 1", "setting": "[1]; day 1 of treatment", "value": "49.35 ± 14.41"},
      {"measurement": "Naloxone-precipitated withdrawal symptom score, Day 3", "setting": "[1]; day 3 of treatment", "value": "35.6 ± 18.73"},
      {"measurement": "Difference in body weight (before precipitation − after precipitation), Day 1", "setting": "[2]; day 1", "value": "15.6 ± 6.39", "unit": "g"},
      {"measurement": "Difference in body weight (before precipitation − after precipitation), Day 3", "setting": "[2]; day 3", "value": "2.6 ± 2.75", "unit": "g"},
      {"measurement": "Jumps upon precipitated withdrawal, Day 1", "setting": "[3]; day 1", "value": "25.1 ± 6.9", "unit": "jumps/30 min"},
      {"measurement": "Jumps upon precipitated withdrawal, Day 3", "setting": "[3]; day 3", "value": "22.9 ± 6.81", "unit": "jumps/30 min"},
      {"measurement": "Difference in body weight (before precipitation − after precipitation), Day 1", "setting": "[4]; day 1", "value": "0.22 ± 0.19", "unit": "g"},
      {"measurement": "Difference in body weight (before precipitation − after precipitation), Day 3", "setting": "[4]; day 3", "value": "0.46 ± 0.23", "unit": "g"}
    ]},
    {"compound": "CN1CC[C@]23c4c5ccc(O)c4O[C@H]2[C@@H](O)C=C[C@H]3[C@H]1C5.Cl", "note": "[Morphine, morphine hydrochloride]", "values": [
      {"measurement": "Withdrawal response score", "setting": "[5]", "value": "76.9 ± 14.53"}
    ]},
    {"compound": "Clc1ccc2c(c1)C(c1ccccc1)=NCc1nncn1-2", "note": "[estazolam]", "values": [
      {"measurement": "Activities before administration", "setting": "[6]; [9]", "value": "171.2 ± 38.94", "unit": "counts/min"},
      {"measurement": "Activities after administration", "setting": "[6]; estazolam 2 mg/kg, morphine 10 mg/kg i.p. 30 min after administration, recorded 15 min later within 10 min", "value": "67.9 ± 40.31", "unit": "counts/min"},
      {"measurement": "Activities before administration", "setting": "[7]; [9]", "value": "183.7 ± 32.99", "unit": "counts/min"},
      {"measurement": "Activities after administration", "setting": "[7]; estazolam 2 mg/kg oral gavage, amphetamine 8 mg/kg i.p. 30 min after administration, recorded 15 min later within 10 min", "value": "83.0 ± 40.14", "unit": "counts/min"},
      {"measurement": "Sleep time of mice", "setting": "[8]", "value": "66.22 ± 13.77", "unit": "min"}
    ]}
  ]
}
